# Measured values from patent US20150105252A1, “SUBSTITUTED PYRAZOLES AS HERBICIDES” (E I DU PONT DE NEMOURS AND COMPANY, priority 2013, published 2015).
# Legend:
# deadnettle [1] = assay: Test D preemergence; assay type: in vivo, Lamium amplexicaule; conditions: Preemergence, scale 0 to 100
# In short: (§1)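 Visual 0–100 control ratings at 14–21 days in a controlled growth environment. Application preemergence onto silt loam or postemergence onto 2–18 cm seedlings, using a non-phytotoxic solvent formulation with surfactant.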
# chamomile = assay: Test D preemergence; assay type: in vivo, Matricaria inodora; conditions: Preemergence, scale 0 to 100
# In short: as §1
# wheat, spring = assay: Test D preemergence; assay type: in vivo, Triticum aestivum; conditions: Preemergence, scale 0 to 100
# In short: as §1
# wheat, winter = assay: Test D preemergence; assay type: in vivo, Triticum aestivum; conditions: Preemergence, scale 0 to 100
# In short: as §1
# field violet = assay: Test D postemergence; assay type: in vivo, Viola arvensis; conditions: scale 0 to 100
# In short: as §1
# buckwheat, wild = assay: Test D postemergence; assay type: in vivo, Polygonum convolvulus; conditions: scale 0 to 100
# In short: as §1
# pigweed [2] = assay: Test D postemergence; assay type: in vivo, Amaranthus retroflexus; conditions: scale 0 to 100
# In short: as §1
# foxtail, green = assay: Test D preemergence; assay type: in vivo, Setaria viridis; conditions: Preemergence, scale 0 to 100
# In short: as §1
# deadnettle [3] = assay: Test D postemergence; assay type: in vivo, Lamium amplexicaule; conditions: scale 0 to 100
# In short: as §1
# radish, wild = assay: Test D preemergence; assay type: in vivo, Raphanus raphanistrum; conditions: Preemergence, scale 0 to 100
# In short: as §1
# pigweed [4] = assay: Test D preemergence; assay type: in vivo, Amaranthus retroflexus; conditions: Preemergence, scale 0 to 100
# In short: as §1
# lambsquarters = assay: Test D preemergence; assay type: in vivo, Chenopodium album; conditions: Preemergence, scale 0 to 100
# In short: as §1
# canarygrass = assay: Test D postemergence; assay type: in vivo, Phalaris minor; conditions: scale 0 to 100
# In short: as §1
# oat, wild = assay: Test D postemergence; assay type: in vivo, Avena fatua; conditions: scale 0 to 100
# In short: as §1
# mustard, wild = assay: Test D postemergence; assay type: in vivo, Sinapis arvensis; conditions: scale 0 to 100
# In short: as §1
# barley, winter [5] = assay: Test D postemergence; assay type: in vivo, Hordeum vulgare; conditions: scale 0 to 100
# In short: as §1
# barley, spring [6] = assay: Test D postemergence; assay type: in vivo, Hordeum vulgare; conditions: scale 0 to 100
# In short: as §1
# barley, winter [7] = assay: Test D preemergence; assay type: in vivo, Hordeum vulgare; conditions: Preemergence, scale 0 to 100
# In short: as §1
# barley, spring [8] = assay: Test D preemergence; assay type: in vivo, Hordeum vulgare; conditions: Preemergence, scale 0 to 100
# In short: as §1
# bromegrass, downy = assay: Test D preemergence; assay type: in vivo, Bromus tectorum; conditions: Preemergence, scale 0 to 100
# In short: as §1
compound,measurement,setting,value
CCCc1cc(C(=O)NC2CC2)nn1Cc1cc(C(F)(F)F)nn1C [Compound 202],"Plant response rating, Deadnettle",deadnettle [1]; 31 g ai/ha,100
same,"Plant response rating, Deadnettle",deadnettle [1]; 62 g ai/ha,100
same,"Plant response rating, Deadnettle",deadnettle [1]; 125 g ai/ha,100
same,"Plant response rating, Deadnettle",deadnettle [1]; 250 g ai/ha,100
same,"Plant response rating, Chamomile",chamomile; 31 g ai/ha,5
same,"Plant response rating, Chamomile",chamomile; 62 g ai/ha,100
same,"Plant response rating, Chamomile",chamomile; 125 g ai/ha,100
same,"Plant response rating, Chamomile",chamomile; 250 g ai/ha,100
same,"Plant response rating, Wheat, Spring","wheat, spring; 62 g ai/ha",0
same,"Plant response rating, Wheat, Spring","wheat, spring; 125 g ai/ha",10
same,"Plant response rating, Wheat, Spring","wheat, spring; 250 g ai/ha",25
same,"Plant response rating, Wheat, Winter","wheat, winter; 62 g ai/ha",5
same,"Plant response rating, Wheat, Winter","wheat, winter; 125 g ai/ha",25
same,"Plant response rating, Wheat, Winter","wheat, winter; 250 g ai/ha",60
same,Field Violet plant response rating,"field violet; Postemergence, 31 g ai/ha",25
same,Field Violet plant response rating,"field violet; Postemergence, 125 g ai/ha",45
same,Field Violet plant response rating,"field violet; Postemergence, 250 g ai/ha",50
same,Field Violet plant response rating,"field violet; postemergence, 62 g ai/ha",25
same,"Buckwheat, Wild plant response rating","buckwheat, wild; Postemergence, 31 g ai/ha",40
same,"Buckwheat, Wild plant response rating","buckwheat, wild; Postemergence, 125 g ai/ha",70
same,"Buckwheat, Wild plant response rating","buckwheat, wild; Postemergence, 250 g ai/ha",90
same,"Buckwheat, Wild plant response rating","buckwheat, wild; postemergence, 62 g ai/ha",40
same,Pigweed plant response rating,"pigweed [2]; Postemergence, 31 g ai/ha",70
same,Pigweed plant response rating,"pigweed [2]; Postemergence, 125 g ai/ha",80
same,Pigweed plant response rating,"pigweed [2]; Postemergence, 250 g ai/ha",85
same,Pigweed plant response rating,"pigweed [2]; postemergence, 62 g ai/ha",70
same,"Plant response rating, Foxtail, Green","foxtail, green; 62 g ai/ha",35
same,"Plant response rating, Foxtail, Green","foxtail, green; 125 g ai/ha",80
same,"Plant response rating, Foxtail, Green","foxtail, green; 250 g ai/ha",100
same,Deadnettle plant response rating,"deadnettle [3]; Postemergence, 31 g ai/ha",55
same,Deadnettle plant response rating,"deadnettle [3]; Postemergence, 125 g ai/ha",60
same,Deadnettle plant response rating,"deadnettle [3]; Postemergence, 250 g ai/ha",65
same,Deadnettle plant response rating,"deadnettle [3]; postemergence, 62 g ai/ha",55
same,"Plant response rating, Radish, Wild","radish, wild; 62 g ai/ha",100
same,"Plant response rating, Radish, Wild","radish, wild; 125 g ai/ha",100
same,"Plant response rating, Radish, Wild","radish, wild; 250 g ai/ha",100
same,"Plant response rating, Pigweed",pigweed [4]; 62 g ai/ha,100
same,"Plant response rating, Pigweed",pigweed [4]; 125 g ai/ha,100
same,"Plant response rating, Pigweed",pigweed [4]; 250 g ai/ha,100
same,"Plant response rating, Lambsquarters",lambsquarters; 62 g ai/ha,75
same,"Plant response rating, Lambsquarters",lambsquarters; 125 g ai/ha,100
same,"Plant response rating, Lambsquarters",lambsquarters; 250 g ai/ha,100
same,Canarygrass plant response rating,"canarygrass; Postemergence, 31 g ai/ha",15
same,Canarygrass plant response rating,"canarygrass; Postemergence, 125 g ai/ha",15
same,Canarygrass plant response rating,"canarygrass; Postemergence, 250 g ai/ha",20
same,Canarygrass plant response rating,"canarygrass; postemergence, 62 g ai/ha",15
same,"Oat, Wild plant response rating","oat, wild; Postemergence, 31 g ai/ha",25
same,"Oat, Wild plant response rating","oat, wild; Postemergence, 125 g ai/ha",30
same,"Oat, Wild plant response rating","oat, wild; Postemergence, 250 g ai/ha",40
same,"Oat, Wild plant response rating","oat, wild; postemergence, 62 g ai/ha",25
same,"Mustard, Wild plant response rating","mustard, wild; Postemergence, 31 g ai/ha",70
same,"Mustard, Wild plant response rating","mustard, wild; Postemergence, 125 g ai/ha",70
same,"Mustard, Wild plant response rating","mustard, wild; Postemergence, 250 g ai/ha",75
same,"Mustard, Wild plant response rating","mustard, wild; postemergence, 62 g ai/ha",70
same,"Barley, Winter plant response rating","barley, winter [5]; Postemergence, 31 g ai/ha",15
same,"Barley, Winter plant response rating","barley, winter [5]; Postemergence, 125 g ai/ha",15
same,"Barley, Winter plant response rating","barley, winter [5]; Postemergence, 250 g ai/ha",25
same,"Barley, Winter plant response rating","barley, winter [5]; postemergence, 62 g ai/ha",15
same,"Barley, Spring plant response rating","barley, spring [6]; Postemergence, 31 g ai/ha",20
same,"Barley, Spring plant response rating","barley, spring [6]; Postemergence, 125 g ai/ha",25
same,"Barley, Spring plant response rating","barley, spring [6]; Postemergence, 250 g ai/ha",30
same,"Barley, Spring plant response rating","barley, spring [6]; postemergence, 62 g ai/ha",20
same,"Plant response rating, Barley, Winter","barley, winter [7]; 31 g ai/ha",0
same,"Plant response rating, Barley, Winter","barley, winter [7]; 62 g ai/ha",0
same,"Plant response rating, Barley, Winter","barley, winter [7]; 125 g ai/ha",25
same,"Plant response rating, Barley, Winter","barley, winter [7]; 250 g ai/ha",45
same,"Plant response rating, Barley, Spring","barley, spring [8]; 31 g ai/ha",0
same,"Plant response rating, Barley, Spring","barley, spring [8]; 62 g ai/ha",0
same,"Plant response rating, Barley, Spring","barley, spring [8]; 125 g ai/ha",55
same,"Plant response rating, Barley, Spring","barley, spring [8]; 250 g ai/ha",65
same,"Plant response rating, Bromegrass, Downy","bromegrass, downy; 31 g ai/ha",25
same,"Plant response rating, Bromegrass, Downy","bromegrass, downy; 62 g ai/ha",35
same,"Plant response rating, Bromegrass, Downy","bromegrass, downy; 125 g ai/ha",35
same,"Plant response rating, Bromegrass, Downy","bromegrass, downy; 250 g ai/ha",50
